pIC50: −log10 of the molar value. Where two headings read alike, the source gives them in different places.
Experiments:
MMP-1 = MMP-1 (Homo sapiens, UniProt P03956); conditions: read-out: IC50 MMP-1; average of three determinations, SD <10%
MMP-2 = MMP-2 (Homo sapiens, UniProt P08253); conditions: read-out: IC50 MMP-2; average of three determinations, SD <10%
MMP-3 = MMP-3 (Homo sapiens, UniProt P08254); conditions: read-out: IC50 MMP-3; average of three determinations, SD <10%
MMP-8 = MMP-8 (Homo sapiens, UniProt P22894); conditions: read-out: IC50 MMP-8; average of three determinations, SD <10%
Sequence of MMP-8 (P22894 101-467, species assumed): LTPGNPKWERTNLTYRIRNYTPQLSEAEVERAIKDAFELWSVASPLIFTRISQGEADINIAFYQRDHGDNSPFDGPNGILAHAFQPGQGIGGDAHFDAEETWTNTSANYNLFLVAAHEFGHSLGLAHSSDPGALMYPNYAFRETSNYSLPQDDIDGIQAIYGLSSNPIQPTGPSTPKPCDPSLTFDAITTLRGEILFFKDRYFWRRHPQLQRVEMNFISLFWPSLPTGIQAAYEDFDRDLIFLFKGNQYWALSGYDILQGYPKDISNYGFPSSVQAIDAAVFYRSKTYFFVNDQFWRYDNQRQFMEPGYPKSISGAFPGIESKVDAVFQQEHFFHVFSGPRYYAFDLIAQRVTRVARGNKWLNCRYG

MMP-9 = MMP-9 (Homo sapiens, UniProt P14780); conditions: read-out: IC50 MMP-9; average of three determinations, SD <10%
Sequence of MMP-9 (P14780 107-707 limits assumed): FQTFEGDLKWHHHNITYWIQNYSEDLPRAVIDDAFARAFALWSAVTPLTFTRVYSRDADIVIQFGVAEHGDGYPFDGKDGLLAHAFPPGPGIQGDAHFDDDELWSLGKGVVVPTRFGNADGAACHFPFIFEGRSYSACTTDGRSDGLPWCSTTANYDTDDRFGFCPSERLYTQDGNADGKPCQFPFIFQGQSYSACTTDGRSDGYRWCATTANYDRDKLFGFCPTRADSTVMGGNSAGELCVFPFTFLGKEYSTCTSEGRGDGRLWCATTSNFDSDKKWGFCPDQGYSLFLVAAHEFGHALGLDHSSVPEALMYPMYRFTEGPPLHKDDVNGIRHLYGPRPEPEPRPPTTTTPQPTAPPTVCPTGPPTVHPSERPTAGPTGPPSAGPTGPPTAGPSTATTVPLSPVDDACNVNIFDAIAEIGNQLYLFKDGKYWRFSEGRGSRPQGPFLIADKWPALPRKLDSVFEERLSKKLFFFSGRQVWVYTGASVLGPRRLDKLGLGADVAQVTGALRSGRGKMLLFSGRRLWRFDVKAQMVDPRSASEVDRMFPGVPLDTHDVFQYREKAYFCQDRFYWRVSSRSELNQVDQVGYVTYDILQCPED

MMP-14 cd = MMP-14 cd (Homo sapiens, UniProt P50281); conditions: read-out: IC50 MMP-14; average of three determinations, SD <10%
[1] = system: corneal epithelial defect; conditions: CM; for wound healing: day 5
corneal opacity [2] = conditions: CM
[3] = system: IL-1β, IL-6, CXCL1, MMPs -1,-3,-9,-13 mRNA transcripts
[4] = system: inflammatory cytokines and MMPs in the cornea; conditions: naïve WT mice, CAM12 IP QD for 5 days versus PBS; data not shown
[5] = system: MMP-1 immunoreactivity; Gr-1+ cells; conditions: WT mice, CM, topical Dex; not in MMP-8KO mice
corneal opacity [6] = conditions: WT, CM, 2D post injury; ref Bian et al., 2016; cited from earlier work

Sequence of MMP-3 (P08254 100-477): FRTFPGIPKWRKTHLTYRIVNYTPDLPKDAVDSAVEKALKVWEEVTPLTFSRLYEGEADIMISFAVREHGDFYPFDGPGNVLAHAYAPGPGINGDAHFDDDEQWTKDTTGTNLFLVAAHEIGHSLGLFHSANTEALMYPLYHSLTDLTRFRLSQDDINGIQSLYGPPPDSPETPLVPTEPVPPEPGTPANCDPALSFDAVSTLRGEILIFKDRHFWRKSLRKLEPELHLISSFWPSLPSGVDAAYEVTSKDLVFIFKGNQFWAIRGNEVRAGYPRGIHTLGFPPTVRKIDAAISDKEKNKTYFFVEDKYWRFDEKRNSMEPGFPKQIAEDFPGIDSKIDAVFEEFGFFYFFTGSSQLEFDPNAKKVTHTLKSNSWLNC
Sequence of MMP-1 (P03956 100-469): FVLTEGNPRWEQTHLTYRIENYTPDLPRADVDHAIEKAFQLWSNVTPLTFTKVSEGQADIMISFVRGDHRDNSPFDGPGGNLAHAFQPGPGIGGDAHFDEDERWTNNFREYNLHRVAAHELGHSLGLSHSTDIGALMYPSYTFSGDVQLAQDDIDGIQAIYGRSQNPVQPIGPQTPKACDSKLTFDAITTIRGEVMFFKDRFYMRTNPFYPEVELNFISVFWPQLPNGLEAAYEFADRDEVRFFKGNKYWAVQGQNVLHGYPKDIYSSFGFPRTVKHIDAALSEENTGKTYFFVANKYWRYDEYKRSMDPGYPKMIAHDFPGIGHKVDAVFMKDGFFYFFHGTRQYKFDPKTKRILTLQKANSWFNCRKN
Sequence of MMP-2 (P08253 110-660): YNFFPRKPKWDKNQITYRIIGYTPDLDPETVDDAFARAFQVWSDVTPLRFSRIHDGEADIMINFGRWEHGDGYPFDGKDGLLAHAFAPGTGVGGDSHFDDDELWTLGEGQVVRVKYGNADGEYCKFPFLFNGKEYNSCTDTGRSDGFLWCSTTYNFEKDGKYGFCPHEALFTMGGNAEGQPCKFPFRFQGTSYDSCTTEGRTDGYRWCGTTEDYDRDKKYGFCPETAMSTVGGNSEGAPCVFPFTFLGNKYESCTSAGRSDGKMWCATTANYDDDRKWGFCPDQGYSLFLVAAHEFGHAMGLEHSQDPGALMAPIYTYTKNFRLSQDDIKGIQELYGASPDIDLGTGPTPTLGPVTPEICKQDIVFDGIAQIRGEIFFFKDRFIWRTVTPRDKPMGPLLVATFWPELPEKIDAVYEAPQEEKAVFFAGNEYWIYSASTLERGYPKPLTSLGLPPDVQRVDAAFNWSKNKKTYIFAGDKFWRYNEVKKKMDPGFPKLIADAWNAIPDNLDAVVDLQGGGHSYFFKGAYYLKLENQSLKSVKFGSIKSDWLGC

With O=C(NO)c1ccccc1S(=O)(=O)c1ccc(-c2ccc(N3CCOCC3)cc2)cc1 [CAM12, N-Hydroxy-2-((4′-morpholino-[1,1′-biphenyl]-4-yl)sulfonyl) benzamide] as the molecule, how does the pIC50 (MMP-1) read?
Its pIC50 is 4.78.

And the pIC50 (MMP-2)?
Its pIC50 is 7.62.

And the pIC50 (MMP-3)?
Its pIC50 is 4.92.

And the pIC50 (MMP-8)?
The pIC50 was 7.24.

And the pIC50 (MMP-9)?
The pIC50 was 5.64.

What about the pIC50 (MMP-14 cd) of the same molecule?
Its pIC50 is 5.94.

And the “re-epithelialization, topical Dex + CAM12 IP versus Dex + vehicle IP” value ([1]; WT mice, 100 nM CAM12 IP QD)?
The value was “delayed re epithelialization”.

And the “corneal opacity score, topical Dex + CAM12 IP versus Dex + vehicle IP” value (corneal opacity [2]; WT mice, 100 nM CAM12 IP QD)?
The value was “higher corneal opacity score”.

And the “MMP-13 mRNA, CAM12 IP versus controls” value ([3]; WT mice, CM 2D and 5D, Dex topical treatment)?
Its value is “higher MMP-13 mRNA transcripts”.

And the “IL-1β, IL-6, MMP-9 mRNA, CAM12 IP versus controls” value ([3]; WT mice, CM 2D and 5D, both Dex and BSS topical treatment)?
Its value is “higher expression of IL-1β, IL-6, MMP-9”.

What about the “MMP-1, -3 mRNA, CAM12 IP versus controls” value ([3]; WT mice, CM 5D, Dex topical treatment) of the same molecule?
The value was “higher levels of MMP-1, -3”.

And the “expression of inflammatory cytokines and MMPs in the cornea” value [4]?
Its value is “no change in expression of inflammatory cytokines and MMPs”.

What does the source list for C[C@@H]1C[C@H]2[C@@H]3CCC4=CC(=O)C=C[C@]4(C)[C@@]3(F)[C@@H](O)C[C@]2(C)[C@@]1(O)C(=O)CO [Dex, Dexamethasone]?
wound healing ([1]; Dex treated MMP-8KO mice): 40%; wound healing ([1]; Dex treated WT mice): 75%; corneal opacity score, Dex-treated MMP-8KO versus Dex treated WT (corneal opacity [2]; 5 days post injury): significantly higher corneal opacity scores; corneal opacity, topical Dex + vehicle IP versus topical BSS + vehicle IP (corneal opacity [2]; WT mice): significantly lower corneal opacity; cytokine and MMP transcripts, Dex versus BSS ([3]; MMP-8KO mice, CM 2D post injury): decreased IL-6, MMP-3, and MMP-9; cytokine and MMP transcripts, Dex versus BSS ([3]; MMP-8KO mice, CM 5D post injury): decreased MMP-9 and MMP-13; IL-1β and CXCL1 expression ([3]; MMP-8KO mice, CM, topical Dex, in contrast to WT): lost its ability to decrease IL-1β and CXCL1 expression; cytokine and MMP transcripts, Dex versus BSS ([3]; WT mice, CM 2D post injury): significantly decreased IL-6, MMPs -3, -9, -13 transcripts; cytokine and MMP transcripts, Dex versus BSS ([3]; WT mice, CM 5D): significantly decreased IL-6 and MMP-3; influx of Gr-1+ cells into the wound site [5]: inhibited the influx; corneal opacity score, Dex versus BSS (corneal opacity [6]): significantly lower opacity scores
